Experimental data published in patent publication US20260001849A1, “NOVEL B0AT1 INHIBITOR” (MITSUBISHI TANABE PHARMA CORPORATION, priority 2023, published 2026).

Target: T1, Human BOAT1 (Homo sapiens, UniProt Q695T7)
T1 construct: expressed in transfected cells
T1 sequence (Q695T7 1-634): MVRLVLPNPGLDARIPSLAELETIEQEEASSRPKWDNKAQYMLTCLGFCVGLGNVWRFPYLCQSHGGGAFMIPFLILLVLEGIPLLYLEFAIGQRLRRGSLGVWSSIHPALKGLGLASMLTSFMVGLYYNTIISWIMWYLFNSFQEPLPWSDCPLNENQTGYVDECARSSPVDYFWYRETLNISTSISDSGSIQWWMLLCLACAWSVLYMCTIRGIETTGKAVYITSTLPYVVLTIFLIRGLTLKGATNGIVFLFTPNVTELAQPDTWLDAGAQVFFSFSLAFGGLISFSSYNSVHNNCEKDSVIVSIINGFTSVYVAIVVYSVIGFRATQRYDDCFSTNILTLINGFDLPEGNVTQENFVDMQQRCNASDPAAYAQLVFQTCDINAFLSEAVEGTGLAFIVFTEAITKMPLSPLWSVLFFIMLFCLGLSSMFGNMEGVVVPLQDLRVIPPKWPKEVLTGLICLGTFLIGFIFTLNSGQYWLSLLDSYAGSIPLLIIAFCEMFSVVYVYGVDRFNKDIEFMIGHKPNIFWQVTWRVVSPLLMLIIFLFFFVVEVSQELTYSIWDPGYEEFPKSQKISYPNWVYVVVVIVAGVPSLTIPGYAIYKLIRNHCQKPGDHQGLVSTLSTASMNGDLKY
Assay: hBOAT1 inhibitory test (phenylalanine uptake)
Type: cell-based
Conditions: Human BOAT1 stable expression CHO cells; [3H]-L-phenylalanine uptake, phenylalanine 0.25 mM; radioactivity after 100 to 200 min; read-out: hB0AT1 IC50
Protocol: A test compound dissolved in dimethyl sulfoxide (DMSO) was added to a 96 well plate for solid phase radioactivity measurement containing a scintillator at the bottom of the well (final concentration of DMSO 0.5%). DMSO alone as a control and DMSO containing N-(4-bromophenyl)-3,5-dichloro-2-hydroxybenzamide (final concentration […]) for the measurement of BOAT1 non-specific uptake were similarly added at 0.5 μL per well. Human BOAT1 stable expression CHO cells suspended in a buffer (buffer containing 96 mM sodium chloride, 2 mM potassium chloride, 1.8 mM calcium chloride, 1 mM magnesium chloride, 0.01% bovine serum albumin, and 10 mM 2-[4-(2-hydroxyethyl)-1-piperazinyl]ethanesulfonic acid) were added by 90 μL to 75000 cells/well. After standing at ordinary temperature for 30 min or longer, the cells were subjected to a phenylalanine uptake experiment. A buffer containing L-phenylalanine and [3,4,5-3H]-L-phenylalanine was added by 10 μL per well (final concentration of phenylalanine 0.25 mM), and the radioactivity of the plate bottom surface at ordinary temperature was measured with a scintillation counter over time, and the radioactivity value after 100 to 200 min was analyzed.

SMILES | IC50
COC(=O)c1cccc(C2CN(C(=O)CNC(=O)/C=C/c3ccc(C(F)(F)F)cc3F)CCN2C)c1 (centres unmarked) [I-62] | 463 nM
C[C@H]1CN(CCCC(=O)O)C[C@H](c2ccccc2)N1C(=O)CNC(=O)/C=C/c1ccc(C(F)(F)F)cc1F [I-370] | 143 nM
O=C(/C=C/c1ccc(C(F)(F)F)cc1F)NCC(=O)N1CCN(C[C@H]2C[C@@H](C(=O)O)C2)CC1c1ccc(Cl)cc1 (mixture of isomers) [I-249, 3-[[3-(4-chlorophenyl)-4-[2-[[(E)-3-[2-fluoro-4-(trifluoromethyl)phenyl]prop-2-enoyl]amino]acetyl]piperazin-1-yl]methyl]cyclobutane-1-carboxylic acid] | 96 nM
C[C@@H]1CN(C(=O)CNC(=O)/C=C/c2ccc(C(F)(F)F)cc2F)[C@@H](c2ccccc2)CN1CCCc1nn[nH]n1 [I-379, (E)-3-[2-fluoro-4-(trifluoromethyl)phenyl]-N-[2-[(2S,5R)-4-[3-(1,2,3λ4,4-tetraazacyclopenta-2,4-dien-5-yl)propyl]-5-methyl-2-phenylpiperazin-1-yl]-2-oxoethyl]prop-2-enamide] | 2520 nM
O=C(O)CCc1cccc2c1CCN2C(=O)CNC(=O)/C=C/c1ccc(C(F)(F)F)cc1F [I-245] | 45 nM
C[C@@H]1CN(CCCC(=O)O)C[C@H](c2ccccc2)N1C(=O)CNC(=O)/C=C/c1ccc(C(F)(F)F)cc1F [I-371] | 3380 nM

Second part, the molecule after the results:

IC50 | SMILES
996 nM | CC(C)(C)OC(=O)CCc1ccc2c(c1)CCN(C(=O)CNC(=O)/C=C/c1ccc(C(F)(F)F)cc1)C2 [I-40]
107 nM | N#Cc1cc2c(cc1CC(=O)O)CCN(C(=O)CNC(=O)/C=C/c1ccc(I)cc1)C2 [I-222]
224 nM | O=C(O)Cc1ncc2c(n1)CCN(C(=O)CNC(=O)/C=C/c1ccc(C(F)(F)F)cc1)C2 [I-208]
251 nM | O=C(O)CCc1ncc2c(n1)CCN(C(=O)CNC(=O)/C=C/c1ccc(C(F)(F)F)cc1)C2 [I-156]
84 nM | O=C(O)Cc1cc(Cl)c2c(c1)CCN(C(=O)CNC(=O)/C=C/c1ccc(I)cc1)C2 [I-155]
447 nM | O=C(O)Cc1ccc2c(c1)CN(C(=O)CNC(=O)/C=C/c1ccc(C(F)(F)F)cc1)CC2 [I-168]
156 nM | O=C(O)Cc1ccc2c(c1)C(O)CN(C(=O)CNC(=O)/C=C/c1ccc(C(F)(F)F)cc1)C2 (centres unmarked) [I-213]
115 nM | O=C(O)Cc1ccc2c(c1)CCN(C(=O)CNC(=O)/C=C/c1ccc(C(F)(F)F)cc1Cl)C2 [I-188]
709 nM | COc1cc(CC(=O)OC(C)(C)C)cc2c1CN(C(=O)CNC(=O)/C=C/c1ccc(C(F)(F)F)cc1)CC2 [I-43]
436 nM | O=C(O)Cc1ccc2c(c1)CCN(C(=O)CNC(=O)/C=C/c1ccc(C(F)(F)F)cc1)CC2 [I-140, 2-[3-[2-[[(E)-3-[4-(trifluoromethyl)phenyl]prop-2-enoyl]amino]acetyl]-1,2,4,5-tetrahydro-3-benzazepin-7-yl]acetic acid]
496 nM | COCC1c2ccc(CC(=O)O)cc2CCN1C(=O)CNC(=O)/C=C/c1ccc(C(F)(F)F)cc1 (centres unmarked) [I-212]
77 nM | CNC(=O)Cc1nc2c(s1)CCN(C(=O)CNC(=O)/C=C/c1ccc(C(F)(F)F)cc1F)C2 [I-376]
152 nM | O=C(/C=C/c1ccc(C(F)(F)F)cc1)NCC(=O)N1CCCC(C23CCC(C2)C3C(=O)O)C1 (centres unmarked) [I-229]
71 nM | O=C(O)Cc1cc2c(cc1Cl)CN(C(=O)CNC(=O)/C=C/c1ccc(C(F)(F)F)cc1F)CC2 [I-221]
123 nM | COC(=O)CCc1cc2c(s1)CN(C(=O)CNC(=O)/C=C/c1ccc(C(F)(F)F)cc1)CC2 [I-13]
223 nM | CC(Cc1ccc2c(c1)CCN(C(=O)CNC(=O)/C=C/c1ccc(C(F)(F)F)cc1)C2)C(=O)O (centres unmarked) [I-163]
50 nM | COC(=O)CCCN1CCN(C(=O)CNC(=O)/C=C/c2ccc(C(F)(F)F)cc2)C(c2ccccc2)C1 (centres unmarked) [I-4]
124 nM | Cc1cc2c(cc1CC(=O)O)CCN(C(=O)CNC(=O)/C=C/c1ccc(C(F)(F)F)cc1)C2 [I-230]
358 nM | CCC1c2ccc(CC(=O)O)cc2CCN1C(=O)CNC(=O)/C=C/c1ccc(C(F)(F)F)cc1 (centres unmarked) [I-216]
667 nM | CCC(F)(F)c1ccc(/C=C/C(=O)NCC(=O)N2CCc3cc(CC(=O)O)ccc3C2)cc1 [I-227]

Same assay, conditions: Human BOAT1 stable expression CHO cells; phenylalanine uptake, phenylalanine 0.25 mM; read-out: hB0AT1 IC50

SMILES | IC50
O=C(O)C[C@H]1CCN(C2CCCN(C(=O)CNC(=O)/C=C/c3ccc(C(F)(F)F)cc3F)C2)C1 (some centres unmarked) [I-361] | 879 nM
C[C@@H]1CN(C(=O)CNC(=O)/C=C/c2ccc(C(F)(F)F)cc2F)[C@@H](c2ccccc2)CN1CCC(C)(C)C(=O)O [I-344] | 122 nM
O=C(O)CCCN1CCN(C(=O)CNC(=O)/C=C/c2ccc(C(F)(F)F)cc2F)C(c2ccc(Cl)cc2)C1 (single isomer, unassigned) [I-295, 4-[3-(4-chlorophenyl)-4-[2-[[(E)-3-[2-fluoro-4-(trifluoromethyl)phenyl]prop-2-enoyl]amino]acetyl]piperazin-1-yl]butanoic acid] | 51 nM
O=C(/C=C/c1ccc(C(F)(F)F)cc1F)NCC(=O)N1CCN(CC2CC(C(=O)O)C2)CC1c1ccc(Cl)cc1 (single isomer, unassigned) [I-297, 3-[[3-(4-chlorophenyl)-4-[2-[[(E)-3-[2-fluoro-4-(trifluoromethyl)phenyl]prop-2-enoyl]amino]acetyl]piperazin-1-yl]methyl]cyclobutane-1-carboxylic acid] | 37 nM
CC1(C)CN(C(=O)CNC(=O)/C=C/c2ccc(C(F)(F)F)cc2F)[C@@H](c2ccccc2)CN1CCCC(=O)O [I-259] | 140 nM
O=C(O)CCCN1CCN(C(=O)CNC(=O)/C=C/c2ccc(C(F)(F)F)cc2F)[C@@H](c2ccc(C3CC3)cc2)C1 [I-263] | 18 nM
CC(CN1C[C@H](c2ccccc2)N(C(=O)CNC(=O)/C=C/c2ccc(C(F)(F)F)cc2F)C[C@H]1C)C(=O)O (some centres unmarked) [I-347] | 2690 nM
C[C@H]1[C@H](c2ccccc2)N(C(=O)CNC(=O)/C=C/c2ccc(C(F)(F)F)cc2F)CCN1CCCC(=O)O [I-352] | 3260 nM
CC(C)(CCN1CCN(C(=O)CNC(=O)/C=C/c2ccc(C(F)(F)F)cc2F)C(c2ccc(Cl)cc2)C1)C(=O)O (centres unmarked) [I-254] | 97 nM
O=C(O)CCCN1CCN(C(=O)CNC(=O)/C=C/c2ccc(C(F)(F)F)cc2F)C(c2cccc(C3CC3)c2)C1 (centres unmarked) [I-256] | 48 nM
C[C@@H]1CN(C(=O)CNC(=O)/C=C/c2ccc(C(F)(F)F)cc2F)[C@@H](c2ccccc2)CN1CC(C)(C)C(=O)O [I-346] | 1040 nM
O=C(O)CCCN1CCN(C(=O)CNC(=O)/C=C/c2ccc(C(F)(F)F)cc2F)C(c2cccnc2)C1 (centres unmarked) [I-403] | 1720 nM
O=C(O)CCCN1CCN(C(=O)CNC(=O)/C=C/c2ccc(C(F)(F)F)cc2F)C(c2cccc(Br)c2)C1 (single isomer, unassigned) [I-293, 4-[3-(3-bromophenyl)-4-[2-[[(E)-3-[2-fluoro-4-(trifluoromethyl)phenyl]prop-2-enoyl]amino]acetyl]piperazin-1-yl]butanoic acid] | 39 nM
O=C(/C=C/c1ccc(C(F)(F)F)cc1F)NCC(=O)N1CCCC(N2CC[C@H](C(=O)O)C2)C1 (some centres unmarked) [I-360] | 2860 nM
O=C(O)CCCN1CCN(C(=O)CNC(=O)/C=C/c2ccc(C(F)(F)F)cc2F)C(c2cccc(Br)c2)C1 (single isomer, unassigned) [I-292, 4-[3-(3-bromophenyl)-4-[2-[[(E)-3-[2-fluoro-4-(trifluoromethyl)phenyl]prop-2-enoyl]amino]acetyl]piperazin-1-yl]butanoic acid] | 1200 nM
O=C(O)CCCN1CCN(C(=O)CNC(=O)/C=C/c2ccc(C(F)(F)F)cc2F)C(c2ccc(Cl)cc2)C1 (single isomer, unassigned) [I-294, 4-[3-(4-chlorophenyl)-4-[2-[[(E)-3-[2-fluoro-4-(trifluoromethyl)phenyl]prop-2-enoyl]amino]acetyl]piperazin-1-yl]butanoic acid] | 266 nM

Continued, values first:

IC50 | SMILES
700 nM | CNC(=O)Cn1cc2c(n1)CN(C(=O)CNC(=O)/C=C/c1ccc(C(F)(F)F)cc1)CC2 [I-282]
256 nM | CNC(=O)Cn1ncc2c1CN(C(=O)CNC(=O)/C=C/c1ccc(C(F)(F)F)cc1)CC2 [I-283]
34 nM | O=C(/C=C/c1ccc(C(F)(F)F)cc1)NCC(=O)N1CCn2ncc(CCC(=O)N3CCCC3)c2C1 [I-274]
223 nM | CN1CCN(C(=O)CNC(=O)/C=C/c2ccc(C(F)(F)F)cc2F)CC1c1cccc(CC(=O)O)c1 (centres unmarked) [I-358]
40 nM | NC(=O)Cc1ccc2c(c1)CN(C(=O)CNC(=O)/C=C/c1ccc(C(F)(F)F)cc1)CC2 [I-278]
